Like-named read-outs stand apart in the source and are kept apart here.
Columns and labels:
5-HT1A receptor = target: T1, 5-HT1A receptor (Rattus norvegicus, UniProt P19327); assay: Inhibition of [^3 H]-8-OH-DPAT binding to rat hippocampal membrane homogenates; conditions: against [^3 H]-8-OH-DPAT, rat hippocampus membranes; read-out: K1 (inhibition constant)
T1 construct: from tissue; host or cells: rat hippocampus membrane homogenates
T1 sequence (P19327 1-422): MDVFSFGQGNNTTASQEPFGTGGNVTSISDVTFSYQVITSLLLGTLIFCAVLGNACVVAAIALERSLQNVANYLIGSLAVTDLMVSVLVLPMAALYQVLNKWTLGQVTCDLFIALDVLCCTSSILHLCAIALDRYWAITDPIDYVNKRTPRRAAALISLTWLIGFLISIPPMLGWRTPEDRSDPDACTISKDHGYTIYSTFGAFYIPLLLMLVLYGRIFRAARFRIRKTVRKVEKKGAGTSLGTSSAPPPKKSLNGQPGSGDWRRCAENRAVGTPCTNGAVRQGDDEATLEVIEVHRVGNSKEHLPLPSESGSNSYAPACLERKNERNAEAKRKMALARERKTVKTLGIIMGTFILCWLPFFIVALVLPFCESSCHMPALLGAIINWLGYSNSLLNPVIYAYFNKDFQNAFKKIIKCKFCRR
Procedure: The hippocampal homogenates were prepared in 100 volumes of ice-cold Tris-HCl buffer (50mM, pH 7.4) and centrifuged at 20,000 g for 20 minutes. […] The final pellets were resuspended in the Tris-buffer containing 2mM of MgCl2. […] The tubes were incubated at 37° C. for fifteen minutes and then terminated by vacuum filtration through glass filters (Schleicher & Schuell, No. 25, Keene, N.H.) soaked with 1% polyethylimine. […] Both Scatchard and competition experiments were analyzed using the iterative least-squarecurve fitting program LIGAND.

D2 dopamine receptor = target: T2, D2 dopamine receptor (Rattus norvegicus, UniProt P61169); assay: Inhibition of [^125 I]NCQ298 binding to D2 dopamine receptors expressed in Sf9 cells; conditions: for HC D2: Table 4, Hill coefficient
T2 construct: made in house; host or cells: Sf9 insect cells infected with recombinant baculovirus (AcMNPVrD2L or AcMNPVrD2S), membrane homogenates
T2 sequence (P61169 whole entry): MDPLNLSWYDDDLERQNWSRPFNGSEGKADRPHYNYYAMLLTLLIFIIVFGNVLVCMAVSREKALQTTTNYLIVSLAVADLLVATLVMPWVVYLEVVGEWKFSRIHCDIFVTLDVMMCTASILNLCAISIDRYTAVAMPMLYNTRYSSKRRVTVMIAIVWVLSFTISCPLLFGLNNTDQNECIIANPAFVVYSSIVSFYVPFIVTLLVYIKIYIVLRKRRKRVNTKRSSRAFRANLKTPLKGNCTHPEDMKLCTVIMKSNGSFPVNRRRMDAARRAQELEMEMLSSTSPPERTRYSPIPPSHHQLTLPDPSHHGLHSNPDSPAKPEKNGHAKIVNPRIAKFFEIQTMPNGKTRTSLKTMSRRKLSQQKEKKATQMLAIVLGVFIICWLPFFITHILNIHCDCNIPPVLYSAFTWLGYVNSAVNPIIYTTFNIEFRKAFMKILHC

D3 dopamine receptor = target: T3, D3 dopamine receptor (Rattus norvegicus, UniProt P19020); assay: Inhibition of [^125 I]NCQ298 binding to D3 dopamine receptors expressed in Sf9 cells; conditions: for HC D3: Table 4, Hill coefficient; for Ratio D2/D3: Table 4 and its discussion, Ki(D2)/Ki(D3)
T3 construct: made in house; host or cells: Sf9 insect cells infected with recombinant baculovirus AcMNPVrD3, membrane homogenates
T3 sequence (P19020 whole entry): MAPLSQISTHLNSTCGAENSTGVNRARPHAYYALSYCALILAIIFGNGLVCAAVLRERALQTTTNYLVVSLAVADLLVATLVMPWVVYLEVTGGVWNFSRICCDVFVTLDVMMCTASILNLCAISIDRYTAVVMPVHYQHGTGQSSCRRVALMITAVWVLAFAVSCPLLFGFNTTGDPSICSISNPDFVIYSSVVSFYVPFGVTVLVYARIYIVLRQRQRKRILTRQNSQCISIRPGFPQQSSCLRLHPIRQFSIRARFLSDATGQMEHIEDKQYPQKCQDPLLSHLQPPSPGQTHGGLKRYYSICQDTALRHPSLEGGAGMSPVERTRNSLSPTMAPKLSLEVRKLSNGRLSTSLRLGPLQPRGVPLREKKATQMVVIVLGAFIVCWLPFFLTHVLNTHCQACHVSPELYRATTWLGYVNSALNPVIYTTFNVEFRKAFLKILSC
Procedure: The construction of pVL1393-rD3 was previously described. […] An aliquot of membranes was used for radioligand binding.
Membranes from AcMNPV-rD3 infected Sf9 cells were prepared. […] Assays were incubated at 37° C. for 20 min. then filtered and washed as described above.

[1] = target: D3 receptors (expressed in Sf9 cells) (Rattus norvegicus, UniProt P19020); conditions: for Hill Co.: Table 3, [^125 I]trans-7-OH-PIPAT competition
D3 receptors (expressed in Sf9 cells), sequence (P19020 whole entry): as above
Procedure: Plasmid DNA was isolated by alkaline dialysis and purified by CsCl density gradient centrifugation and overnight dialysis for transfection of Sf9 cells. […] A monolayer of Sf9 cells (approximately 2×10^6 cells/T25 plate) was cotransfected by calcium phosphate precipitation, with 1 mg of AcMNPV DNA (provided by Dr. Max Summers, Texas A&M University, College Station, Tex.) and 2 mg of recombinant transfer vector DNA. […] Putative recombinant viral plaques were chosen by visual screening for occlusion-negative plaques and used to infect 1×10^6 Sf9 cells in a 6-well plate (CoStar, Cambridge, Mass.). Four days after infection, cells were harvested and membranes were prepared. An aliquot of membranes was used for radioligand binding. […] The membrane homogenates of AcMNPVrD3 infected Sf9 cells were prepared as described. Briefly, the harvested cells were centrifuged, resuspended and homogenized in buffer containing 50 mM Tris, pH7.4, 150mM NaCl, 10 mM EDTA and a mixture of protease inhibitors (1 mg/ml aprotinin, 1 mg/ml leupeptin, 1 mg/ml soybean trypsin inhibitor, 10 mg/ml PMSF). The final pellets obtained were resuspended in the same buffer and kept at -20° C. for radioligand binding assays.
Binding assays were performed in glass tubes (12×75 mm) in a final volume of 0.2 ml. The buffer used for the dilution contained 50 mM Tris, pH 7.4, and the protease inhibitors mixture. […] The competition experiments were performed in the presence of 120 mM NaCl. […] After incubation for 30 min at 37° C. or 90 min at 25° C., the bound ligand was separated from the free ligand by filtration through glass fiber filters No. 25 (Schleicher & Schuell, Keene, N.H.) soaked with 0.2% protamine free base. The filters were then washed twice with 4 ml of ice-cold buffer (containing 50 mM Tris-HCl, pH 7.4) and the radioactivity on the filters was counted in a gamma counter (Packard 5000) with 70% efficiency.

[2] = In-vivo biodistribution in rats; parameters: species or system rat; Brain uptake: unit not given here; conditions: for Brain uptake: table; for tissue uptake at 2 min / tissue uptake at 0.5 h: rat, in vivo
Procedure: In-vivo biodistribution studies were performed in rats^27 with the two hydroxylated radioligands: [^123 I]-7-OH-DPAT and [^123 I]-7-OH-PIPAT in rats. Concerning [^123 I]-7-OH-DPAT rats were killed either two minutes or thirty minutes post injection and the data are reported in Table 5. […] On the contrary, [^123 I]-7-OH-PIPAT presented a very high brain uptake: 11.812, 9,458 and 5.433% dose/gram of tissue at 2, 30 and 60 min. respectively (See Table 6). […] However, the brain regions, rich in D3 receptors such as Calleja island and olfactory tubercle need to be more deeply investigated.

[3] = Table 4 and its discussion, [^125 I]-NCQ298 0.05 nM, 37° C., 20 min, read-out: Ki D2

Row | Structure (SMILES) | HC D2 (D2 dopamine receptor) | Ki (D3 dopamine receptor) | HC D3 (D3 dopamine receptor) | Ratio D2/D3 (D3 dopamine receptor) | Ki (D2 dopamine receptor; [3]) | also measured
1 | Oc1cccc2c1CC(NC/C=C/I)CC2 (racemic) [(±)trans-8-OH-IPAT, 8-Hydroxy-2-(N-3'-iodo-2'propenyl)aminotetralin] | – | – | – | – | – | Ki (5-HT1A receptor): 10 ± 2 nM
2 | CCCN(CCC)C1CCc2ccc(OC)cc2C1 (centres unmarked) [7-MeO-DPAT, 7Methoxy-2-N,N-n-Dipropylaminotetralin] | 0.95 | 280 ± 36 nM | 0.98 | 7.7 | – | Ki (D2 dopamine receptor): 2170 ± 216 nM
3 | CCCN(CCC)C1CCc2ccc(O)cc2C1 (centres unmarked) [7-OH-DPAT, 7Hydroxy-2-N,N-n-Dipropylaminotetralin, reference compound] | 1.02 | – | 0.85 | – | – | Hill Co. ([1]; 37° C., 120 mM NaCl): 0.87; affinity for the D3 receptor ([1]; competition with [^125 I]trans-7-OH-PIPAT): high affinity
4 | CCCNC1CCc2ccc(OC)cc2C1 (centres unmarked) [7-MeO-MPAT, 7Methoxy-2-N-n-Propylaminotetralin] | 0.96 | 1310 ± 249 nM | 0.97 | 4.0 | – | Ki (D2 dopamine receptor): 5176 ± 0.96 nM
5 | CCCN(CCC)C1CCc2ccc(O)c([123I])c2C1 (centres unmarked) [[^123 I]-7-OH-DPAT, reference compound] | – | – | – | – | – | Brain uptake ([2]; 2 min): 1.55 ± 0.21; Brain uptake ([2]; 30 min): 0.54 ± 0.13; tissue uptake at 2 min ([2]; 2 min, read-out: Regional uptake, Cerebellum): 0.81 ± 0.14 %ID/g; tissue uptake at 2 min ([2]; 2 min, read-out: Regional uptake, Cortex): 1.1 ± 0.12 %ID/g; tissue uptake at 2 min ([2]; 2 min, read-out: Regional uptake, Hippocampus): 0.78 ± 0.09 %ID/g; tissue uptake at 2 min ([2]; 2 min, read-out: Regional uptake, Striatum): 0.85 ± 0.07 %ID/g; tissue uptake at 0.5 h ([2]; 30 min, read-out: Regional uptake, Cerebellum): 0.25 ± 0.09 %ID/g; tissue uptake at 0.5 h ([2]; 30 min, read-out: Regional uptake, Cortex): 0.29 ± 0.12 %ID/g; tissue uptake at 0.5 h ([2]; 30 min, read-out: Regional uptake, Hippocampus): 0.31 ± 0.07 %ID/g; tissue uptake at 0.5 h ([2]; 30 min, read-out: Regional uptake, Striatum): 0.31 ± 0.08 %ID/g; brain washout ([2]; rats, brain): rapidly washed out of the brain; regional uptake in the different area of the brain ([2]; rats, brain): no regional uptake was observed
6 | C#CCN(CCC)C1CCc2ccc(O)cc2C1 (centres unmarked) [7-OH-PPAT, 7Hydroxy-2-(-Propargyl-N-n-Propyl)-Aminotetralin] | 0.99 | 9.2 ± 0.6 nM | 0.80 | 41.1 | 378 ± 45 nM | affinity for the D2 receptor (D2 dopamine receptor): three-fold less active than 7-OH-DPAT; affinity / selectivity for the D3 receptor (D3 dopamine receptor): three-fold less active than 7-OH-DPAT
7 | CCCN(CCC)C1CCc2ccc(O)c(I)c2C1 (centres unmarked) [8-I-7-OH-DPAT, 7Hydroxy-8-Iodo-2-N,N-n-Dipropylaminotetralin] | 0.92 | 21.3 ± 2.9 nM | 0.85 | 16.6 | 353 ± 31 nM | –
8 | CCCNC1CCc2ccc(O)cc2C1 (centres unmarked) [7-OH-MPAT, 7Hydroxy-2-N-n-Propylaminotetralin] | 0.80 | 3.25 ± 0.45 nM | 0.80 | 191 | 620 ± 124 nM | affinity / selectivity for the D3 receptor (D3 dopamine receptor): comparative affinity as 7-OH-DPAT for D3 receptors
9 | CCN1CCC[C@H]1CNC(=O)c1c(O)c(Cl)cc(Cl)c1OC [Raclopride] | – | – | – | – | – | Hill Co. ([1]; 37° C., 120 mM NaCl): 0.78; Ki ([1]; ± SE, [^125 I]trans-7-OH-PIPAT 0.1-0.2 nM, 37° C., 120 mM NaCl): 9.25 ± 2.3 nM

Reference: patent publication US5690906A (The Trustees of the University of Pennsylvania, priority 1995, dated 1997)
